Measurements published in the NIST ThermoML archive (doi:10.1021/je800468h).
Values joined by “and” are separate entries in the source; they are usually repeats but may differ in a detail not shown here. Identical values can stand only once. Numbers after ± are expanded uncertainties.

Experiment: xn = mol fraction of the nth substance listed
Conditions: 298.15 K, 101 kPa, Liquid; for electrical conductivity: Alternating current cell with electrodes; for mass density: Vibrating tube method

CCCCCCn1cc[n+](C)c1.F[B-](F)(F)F [1-hexyl-3-methylimidazolium tetrafluoroborate] + O
Conditions	electrical conductivity	mass density
x1 = 0.0007116	0.327 ± 0.003 S/m	998.06 ± 0.12 kg/m3
x1 = 0.001428	0.567 ± 0.006 S/m	999.52 ± 0.12 kg/m3
x1 = 0.001482	0.608 ± 0.006 S/m	999.64 ± 0.12 kg/m3
x1 = 0.002238	0.854 ± 0.009 S/m	1001.24 ± 0.12 kg/m3
x1 = 0.00296	1.05 S/m and 1.06 S/m	1002.63 ± 0.12 kg/m3 and 1002.7 ± 0.12 kg/m3
x1 = 0.003642	1.225 ± 0.012 S/m	1003.94 ± 0.12 kg/m3
x1 = 0.00447	1.411 ± 0.014 S/m	1005.24 ± 0.12 kg/m3
x1 = 0.004747	1.47 ± 0.015 S/m	1005.61 ± 0.12 kg/m3
x1 = 0.2816	2.03 ± 0.02 S/m	1113.63 ± 0.62 kg/m3
x1 = 0.314	1.829 ± 0.018 S/m	1116.76 ± 0.75 kg/m3
x1 = 0.3441	1.66 ± 0.017 S/m	1119.43 ± 0.88 kg/m3
x1 = 0.3813	1.46 ± 0.015 S/m	1122.43 ± 1.1 kg/m3
x1 = 0.4148	1.29 ± 0.013 S/m	1124.75 ± 1.2 kg/m3
x1 = 0.5139	0.898 ± 0.009 S/m	1130.58 ± 1.9 kg/m3
x1 = 0.5161	0.885 ± 0.009 S/m	1130.73 ± 1.9 kg/m3
x1 = 0.7069	0.417 ± 0.004 S/m	1138.7 ± 3.5 kg/m3
x1 = 1	0.1228 ± 0.0012 S/m	1146.34 ± 7.1 kg/m3

CCCCn1cc[n+](C)c1.N#CN=C=[N-] [1-butyl-3-methylimidazolium dicyanamide] + O
Conditions	electrical conductivity [S/m]	mass density [kg/m3]
x1 = 0.009639	2.02 ± 0.02	1003.22 ± 0.12
x1 = 0.02791	3.49 ± 0.04	1011.25 ± 0.12
x1 = 0.05432	4.43 ± 0.04	1019.63 ± 0.13
x1 = 0.07995	4.8 ± 0.05	1025.43 ± 0.14
x1 = 0.1112	4.9 ± 0.05	1031.05 ± 0.16
x1 = 0.1933	4.47 ± 0.05	1040.01 ± 0.29
x1 = 0.3214	3.55 ± 0.04	1047.31 ± 0.67
x1 = 0.4686	2.71 ± 0.03	1051.86 ± 1.3
x1 = 0.6386	2 ± 0.02	1055.38 ± 2.5
x1 = 0.8742	1.37 ± 0.014	1058.33 ± 4.6
x1 = 1	1.139 ± 0.011	1059.12 ± 6.1

CCCCn1cc[n+](C)c1.F[B-](F)(F)F [1-butyl-3-methylimidazolium tetrafluoroborate] + O
Conditions	electrical conductivity [S/m]	mass density [kg/m3]
x1 = 0.005053	1.72 ± 0.017	1007 ± 0.12
x1 = 0.008751	2.47 ± 0.03	1013.47 ± 0.12
x1 = 0.01927	3.59 ± 0.04	1030.78 ± 0.12
x1 = 0.03304	4.46 ± 0.04	1047.81 ± 0.13
x1 = 0.04969	4.9 ± 0.05	1065.19 ± 0.14
x1 = 0.07385	5.17 ± 0.05	1084.47 ± 0.16
x1 = 0.1053	5.21 ± 0.05	1103.47 ± 0.19
x1 = 0.1566	4.93 ± 0.05	1124.77 ± 0.28
x1 = 0.1991	4.55 ± 0.05	1137.3 ± 0.39
x1 = 0.2824	3.71 ± 0.04	1154.46 ± 0.68
x1 = 0.414	2.57 ± 0.03	1171.08 ± 1.4
x1 = 0.4919	2.04 ± 0.02	1177.86 ± 1.9
x1 = 0.5749	1.57 ± 0.016	1183.94 ± 2.5
x1 = 0.6838	1.1 ± 0.011	1190.14 ± 3.6
x1 = 0.7594	0.846 ± 0.008	1193.53 ± 4.5
x1 = 0.8931	0.527 ± 0.005	1198.74 ± 6.2
x1 = 1	0.353 ± 0.004	1202.19 ± 7.9

CC1COC(=O)O1 (stereo not drawn) [4-methyl-1,3-dioxolan-2-one] + CCCCn1cc[n+](C)c1.F[B-](F)(F)F
Conditions	electrical conductivity [S/m]	mass density [kg/m3]
x2 = 0.02318	0.537 ± 0.005	1201.32 ± 0.16
x2 = 0.04836	0.873 ± 0.009	1202.51 ± 0.17
x2 = 0.1028	1.23 ± 0.012	1204.3 ± 0.22
x2 = 0.1601	1.346 ± 0.013	1205.43 ± 0.32
x2 = 0.2277	1.332 ± 0.013	1206.17 ± 0.52
x2 = 0.3056	1.229 ± 0.012	1206.51 ± 0.83
x2 = 0.407	1.05 ± 0.011	1206.44 ± 1.4
x2 = 0.5126	0.875 ± 0.009	1206.03 ± 2.1
x2 = 0.6192	0.715 ± 0.007	1205.48 ± 3
x2 = 0.7173	0.593 ± 0.006	1204.39 ± 4
x2 = 0.8497	0.463 ± 0.005	1203.39 ± 5.7

ClCCl [dichloromethane] + CCCCn1cc[n+](C)c1.F[B-](F)(F)F
Conditions	electrical conductivity [S/m]	mass density [kg/m3]
x2 = 0.00755	0.0602 ± 0.0006	1316.6 ± 0.18
x2 = 0.01921	0.2 ± 0.002	1314.92 ± 0.19
x2 = 0.02714	0.31 ± 0.003	1313.4 ± 0.19
x2 = 0.03878	0.436 ± 0.004	1311.8 ± 0.19
x2 = 0.07987	0.98 ± 0.01	1304.97 ± 0.22
x2 = 0.1395	1.427 ± 0.014	1294.06 ± 0.32
x2 = 0.194	1.55 ± 0.016	1284.29 ± 0.46
x2 = 0.2674	1.607 ± 0.016	1271.96 ± 0.72
x2 = 0.3355	1.53 ± 0.015	1261.43 ± 1
x2 = 0.4787	1.209 ± 0.012	1242.95 ± 1.9
x2 = 0.6019	0.93 ± 0.009	1230.33 ± 3
x2 = 0.773	0.62 ± 0.006	1216.18 ± 4.8
x2 = 0.8496	0.511 ± 0.005	1211.19 ± 5.7
x2 = 0.9107	0.441 ± 0.004	1207.46 ± 6.5

CCCCCCn1cc[n+](C)c1.F[B-](F)(F)F [1-hexyl-3-methylimidazolium tetrafluoroborate] + CC#N
Conditions	electrical conductivity [S/m]	mass density [kg/m3]
x1 = 0.004117	0.838 ± 0.008	784.24 ± 0.15
x1 = 0.008445	1.442 ± 0.014	791.63 ± 0.15
x1 = 0.01744	2.35 ± 0.02	806.26 ± 0.15
x1 = 0.03816	3.51 ± 0.04	836.42 ± 0.15
x1 = 0.06486	4.13 ± 0.04	869.76 ± 0.16
x1 = 0.09763	4.25 ± 0.04	903.86 ± 0.18
x1 = 0.1399	3.96 ± 0.04	939.67 ± 0.21
x1 = 0.1943	3.37 ± 0.03	975.94 ± 0.28
x1 = 0.2712	2.53 ± 0.03	1014.86 ± 0.47
x1 = 0.3907	1.543 ± 0.015	1056.74 ± 0.97
x1 = 0.5902	0.656 ± 0.007	1100.45 ± 2.3
x1 = 0.7435	0.344 ± 0.003	1122.12 ± 3.8
x1 = 0.8889	0.192 ± 0.002	1137.2 ± 5.5
x1 = 1	0.1228 ± 0.0012	1146.34 ± 7.1
